Assay results published in ChEMBL document CHEMBL1158525, “New heteroaryl nitrones with spin trap properties: Identification of a 4-furoxanyl derivative with excellent properties to be used in biological systems” (Bioorg Med Chem, 2010).
The source made the active and inactive calls.

Key:
Format in all cases: functional
Settings in all cases: Microsome
Trypanosoma cruzi [1] = assay: Antioxidant activity in Trypanosoma cruzi microsomes assessed as inhibition of NF-induced free radicals generation by EPR-based spin trap technique
Trypanosoma cruzi [2] = assay: Antioxidant activity in Trypanosoma cruzi microsomes assessed as inhibition of TBfx1-induced free radicals generation by EPR-based spin trap technique
Trypanosoma cruzi [3] = assay: Antioxidant activity in Trypanosoma cruzi microsomes assessed as inhibition of PtCl2(NF)-induced free radicals generation by EPR-based spin trap technique
Trypanosoma cruzi [4] = assay: Antioxidant activity in Trypanosoma cruzi microsomes assessed as inhibition of TBfx2-induced free radicals generation by EPR-based spin trap technique

Measured: Activity

Cc1c(/C=[N+](\[O-])C(C)(C)C)no[n+]1[O-]
active: all assays above
